Assay results reported in patent EP0232423A1, “CIRCULATION IMPROVING AGENT” (GRELAN PHARMACEUTICAL CO., LTD., priority 1985, dated 1987).
Structures can show the parent of a compound that is named as a salt.

Columns and labels:
[1] = system: isolated basilar artery; test: Relaxation of isolated basilar artery contracted by 50 mM KCl; assay type: cell-based, Mongrel dogs; details: Canis lupus familiaris, 50 mM KCl contraction
Description: (§1) Mongrel dogs of either sex (body weight 10-17 kg) were killed by bleeding under anesthetization with pentobarbital sodium (tradename: Nembutai ® Abbott Co., USA). Thereafter, the basilar and femoral arteries were extracted and attached blood and connective tissues were carefully removed in a dish filled with Krebs bicarbonate solution (composition: NaCl 117.7 mM, KC1 4.7 mM, CaCl2 2.5 mM, MgSo4 1.2 mM, glucose 10 mM, NaHCO3 24.4 mM). Thereafter, ring preparations were made therefrom. This preparation was suspended in a bathing tube of 10 ml filled with Krebs bicarbonate solution aerated with 95 % 02 and 5 % C02.
(§2) Then, samples of basilar and femoral arteries were contracted by application of 50 mM KC1. After confirming that the contraction was sustained, (a) compound (I) (erythro form) lactate, (b) compound (I) (threo form) lactate and (c) ifenprodil; [2-(4-benzyl- piperidino-l-(4-hydroxyphenyl)propane-l-ol] tartrate were, respectively, administered as test compounds and the dose-relaxation response was examined.
(§3) A strain gauge transducer (model SB-lT manufactured by Nihon Koden Co.) was employed for recording of change of tension and isometric contraction was recorded on a recorder (model QPD 53 made by Hitachi Ltd . ) .

[2] = system: isolated femoral artery; test: Relaxation of isolated femoral artery contracted by 50 mM KCl; assay type: cell-based, Mongrel dogs; details: Canis lupus familiaris, 50 mM KCl contraction
Description: as §1, §2, §3

[3] = system: isolated coronary artery; test: Relaxation of isolated coronary artery; assay type: cell-based, Mongrel dogs; details: Canis lupus familiaris, read-out: ED50 (the source's name)
Description: as §1, §2, §3
Experiments were conducted in accordance with the method of Test Example 2 with use of the coronary artery in place of the basilar and femoral arteries. […]

[4] = system: isolated femoral artery; test: Ca antagonistic action: Ca-induced contraction in K-depolarized femoral artery; assay type: cell-based, Mongrel dogs; details: Canis lupus familiaris, 0.25 h, 50 mM KCl, Ca-free bath, cumulative CaCl2, compound applied 15 minutes before, read-out: pA2 values on Ca-induced contraction in depolarized muscle by K (converted)
Description: The same measurements as in Test Example 2 were carried out using the isolated basilar artery and isolated femoral artery treated in accordance with the method of Test Example 2.
For examination of the Ca antagonistic action, the depolarization of both isolated arteries was induced with 50 mM KC1 in a bathing solution from which Ca had been removed and then CaCl2 was cumulatively applied thereto. As test compounds, (a) compound (I) (erythro form) lactate and (b) ifenprodil tartrate were applied at 15 minutes before addition of CaCl2.

[5] = system: mice; test: Protective action on death caused by endotoxin shock; assay type: in vivo; details: for Number of survival after administration of endotoxin: of 15 (Compound (I)) or 14 (ifenprodil) animals
Excerpt: Compound (I) and ifenprodil tartrate were orally administered to mice and the protective action on death due to endotoxin shock was examined in accordance with a known method (Folia pharmacol. japon, vol. 86, page 17, 1985). The control group was drug-untreated.

[6] = system: platelets of rabbit; test: Fluidity of platelet membrane (fluorescence polarization); assay type: cell-based; parameters: Fluorescence polarization: unit not given here; details: for Fluorescence polarization: fluidity increases as value decreases
Excerpt: The activity of compound (I) (lactate) and ifenprodil tartrate against the fluidity of platelet membrane was examined according to a known method (Biochimica et Biophysica Acta, vol. 798, page 210, 1984) using platelets of rabbit and using n-butyl alcohol as a positive control.

[7] = system: α1-adrenoceptor; test: Antagonism of phenylephrine (α1-agonist) contraction in saphenous vein; assay type: cell-based, Mongrel dogs; details: α1 - agonist: phenylephrine; saphenous vein; 15 minutes treatment
Excerpt: In this experiment, phenylephrine and clonidine were used as al-agonist and a2-agonist, respectively, and these agonists were cumulatively applied to obtain a dose-response curve.

[8] = system: ddY male mice; test: Ameliorative activity against damage of cerebral hypoxia (reduced pressure); assay type: in vivo
Description: Thirty mg/kg each of compound (I) (lactate) and ifenprodil tartrate and 16 mg/kg of phentolamine, which is an a-adrenoceptor blocker, were intraperitoneally administered to ddY male mice, respectively. […] Time from start of reduction of pressure until stop of respiration in the mice was measured. The control group was drug-untreated.

[9] = system: ddY male mice; test: Prolongation of gasping time in complete cerebral ischemic (decapitated) animals; assay type: in vivo; details: for Ratio of time (%): prolongation as compared with the control group; for Duration time of gasping: decapitated after 30 minutes
Description: After 30 minutes from administration, the.mice were decapitated and the duration time of gasping was measured. The control group was drug-untreated.

[10] = system: isolated femoral artery; test: K-induced 45Ca influx in isolated femoral artery; assay type: cell-based, Mongrel dogs; details: 10^-5 M + 50 mM KCl
Excerpt: (§4) Using the isolated basilar artery and femoral artery treated in accordance with Test Example 2, the activity of (a) compound (I) (lactate), (b) ifenprodil tartrate and (c) verapamil hydrochloride against ^45Ca influx and ^45Ca uptake were examined by the conventional method (J. Membran. Biol., vol. 59, page 19, 1981).

[11] = system: isolated femoral artery; test: K-induced 45Ca uptake in isolated femoral artery; assay type: cell-based, Mongrel dogs; details: 50 mM KCl alone 586.0 ± 17.9
Excerpt: as §4

[12] = system: isolated basilar artery; test: PGF2α-induced 45Ca uptake in isolated basilar artery; assay type: cell-based, Mongrel dogs; details: 10^-5 M + 10^-5 M PGF2α; PGF2α alone 166.2 ± 6.0
Excerpt: as §4

`CC(C(O)c1ccc(O)cc1)N1CCC(Cc2ccccc2)CC1` (stereo not shown) [Ifenprodil tartrate] showed an inhibition at 50 µM ([1]; 5 x 10^-5 M, mean, n = 4 - 5) of 96.6%, an inhibition at 100 µM ([1]; 10^-4 M, mean, n = 4 - 5) of 100% and an inhibition at 10 µM ([1]; 10^-5 M, mean, n = 4 - 5) of 44.1%. The inhibition at 1 µM ([1]; 10^-6 M, mean, n = 4 - 5) was 5.1%, the inhibition at 0.1 µM ([1]; 10^-7 M, mean, n = 4 - 5) was 0.9% and the EC50 ([1]; relaxation of isolated basilar artery, read-out: ED50 (the source's name)) was 11 µM. For the same compound, the inhibition at 50 µM ([2]; 5 x 10^-5 M, mean, n = 4 - 5) was 49.8%, the inhibition at 100 µM ([2]; 10^-4 M, mean, n = 4 - 5) was 75.9% and the inhibition at 10 µM ([2]; 10^-5 M, mean, n = 4 - 5) was 2.8%. It also gave an inhibition at 1 µM ([2]; 10^-6 M, mean, n = 4 - 5) of 0%, an inhibition at 0.1 µM ([2]; 10^-7 M, mean, n = 4 - 5) of 0% and an EC50 ([2]; relaxation of isolated femoral artery, read-out: ED50 (the source's name)) of 52 µM. The EC50 [3] was 26 µM, the Kb [4] was 29.5 µM and the “Number of survival after administration of endotoxin” value (“Number of survival” for short) ([5]; 70 mg/kg oral, 18 hr) was 11. For the same compound, the “Number of survival” value ([5]; 70 mg/kg oral, 20 hr) was 9, the “Number of survival” value ([5]; 70 mg/kg oral, 22 hr) was 6 and the “Number of survival” value ([5]; 70 mg/kg oral, 24 hr) was 2. For the same compound, the “Number of survival” value ([5]; 70 mg/kg oral, 48 hr) was 0, the “Number of survival” value ([5]; 200 mg/kg oral, 18 hr) was 11 and the “Number of survival” value ([5]; 200 mg/kg oral, 20 hr) was 9. The “Number of survival” value ([5]; 200 mg/kg oral, 22 hr) was 7, the “Number of survival” value ([5]; 200 mg/kg oral, 24 hr) was 7 and the “Number of survival” value ([5]; 200 mg/kg oral, 48 hr) was 5. For the same compound, the “protective action on the death (endotoxin shock)” value ([5]; oral, mice, compound (I) at 200 mg/kg) was “no such effect”, the “effect on fluidity of platelet membrane” value [6] was “no such activity” and the Fluorescence polarization ([6]; 1 µM) was 7. The Fluorescence polarization ([6]; 10 µM) was 13±7, the Fluorescence polarization ([6]; 100 µM) was 3±3 and the pA2 value [7] was 8.22 ± 0.29. The “Time required for stoppage of respiration” value ([8]; 30 mg/kg intraperitoneally, 30 minutes before, pressure reduced to 160 mmHg) was 85.2 ± 4.1 s, the “effect on survival time (cerebral hypoxia)” value ([8]; i.p., 30 mg/kg compound (I) and ifenprodil tartrate, 16 mg/kg phentolamine) was “substantially no effect” and the “Ratio of time (%)” value ([9]; 10 mg/kg i.p.) was 10.0%. For the same compound, the “Duration time of gasping” value ([9]; 10 mg/kg intraperitoneally) was 23.0 ± 0.5 s, the “Ratio of time (%)” value ([9]; 30 mg/kg i.p.) was 28.7% and the “Duration time of gasping” value ([9]; 30 mg/kg intraperitoneally) was 26.9 ± 1.2 s. For the same compound, the “K-induced ^45Ca influx in isolated femoral artery” value (from here on “K-induced ^45Ca influx”) ([10]; pre-incubation 15 min, 50 mM KCl alone 94.6 ± 5.2) was 99.8 ± 6.4 n mol/g wt. tissue, the “K-induced ^45Ca influx” value ([10]; pre-incubation 45 min, 50 mM KCl alone 98.4 ± 6.8) was 59.0 ± 9.8 n mol/g wt. tissue and the “K-induced ^45Ca influx” value ([10]; pre-incubation 135 min) was 64.8 ± 7.5 n mol/g wt. tissue. For the same compound, the “K-induced ^45Ca uptake in isolated femoral artery” value (“K-induced ^45Ca uptake” for short) ([11]; 5 x 10^-5 M + 50 mM KCl) was 471.2 ± 40.0 n mol/g wt. tissue, the “K-induced ^45Ca uptake” value ([11]; 10^-4 M + 50 mM KCl) was 486.5 ± 20.9 n mol/g wt. tissue and the “K-induced ^45Ca uptake” value ([11]; 10^-5 M + 50 mM KCl) was 635.2 ± 41.4 n mol/g wt. tissue. For the same compound, the “PGF2α-induced ^45Ca uptake in isolated basilar artery” value [12] was 125.7 ± 5.6 n mol/g wt. tissue.
